According to patent US8771754B2, “Use of GSK3 inhibitors in combination with radiation therapies” (priority 2004, dated 2014):

Tested on: HT-22 hippocampal neuronal cells
Assay: Apoptosis assay, Annexin V-FITC and propidium iodide flow cytometry
Type: cell-based, mouse
Conditions: for radiation-induced apoptosis, cells positive for apoptosis: HT-22, pretreated (LiCl 3 mM 7 days; inhibitor VIII 1 μM or SB415286 25 μM 24 h), 3 Gy, 24 h after irradiation, 3 Gy alone 53%, untreated 8%
Method: Apoptosis assays. HT-22 cells were treated with LiCl (3 mM) for 7 days, with GSK3β inhibitor VIII (1 μM) or SB415286 (25 μM) for 24 hours prior to irradiation. Camptothecin (5 μM) was added to the HT-22 cells 6 hours prior to harvest as a positive control for apoptosis. The HT-22 cells with or without the inhibitors were irradiated with 3 Gy and harvested 24 hours post irradiation. Annexin V-FITC (5 ng) and propidium iodide (50 ng) were added to […]. Stained cells were analyzed by flow cytometry. The fraction of cells in each of the four gating windows (Q1-4) was calculated.
Apoptosis was studied in irradiated mouse HT-22 hippocampal neuronal cells pretreated with LiCl, GSK3β inhibitor VIII or SB415286. The fraction of cells in each of the four gating windows (Q1-4) was calculated and tabulated as the mean and SEM of 3 separate experiments. Camptothecin served as positive control for apoptosis and was added to HT-22 cells prior to staining for apoptosis. Camptothecin positive control induced apoptosis in 78.8% of cells. In comparison, 3 Gy irradiation induced apoptosis in 53% of cells, while 8% of untreated control cells stained positive for apoptosis (FIG. 2B). […] Lithium, as a nonspecific neuroprotector, attenuated radiation-induced apoptosis to 21.9% of cells (P=0.01, 3 Gy vs. 3 Gy+LiCl). The radioprotective effect of lithium in HT-22 neuronal cells was also analyzed by morphologic analysis using DAPI staining.

SMILES: CC[C@@]1(O)C(=O)OCc2c1cc1n(c2=O)Cc2cc3ccccc3nc2-1 [Camptothecin]
- apoptosis induced by positive control (HT-22, camptothecin 5 μM added 6 hours prior to harvest): 78.8%

SMILES: COc1ccc(CNC(=O)Nc2ncc([N+](=O)[O-])s2)cc1 [GSK3β inhibitor VIII]
- radiation-induced apoptosis, cells positive for apoptosis: 33.9%

SMILES: O=C1NC(=O)C(c2ccccc2[N+](=O)[O-])=C1Nc1ccc(O)c(Cl)c1 [SB415286]
- radiation-induced apoptosis, cells positive for apoptosis: 41.4%
